Assay results taken from patent US7897582B2, “Oligonucleotide compositions and methods for the modulation of the expression of B7 protein” (Isis Pharmaceuticals, Inc., priority 2003, dated 2011).
Strand notation (5' to 3'): a small letter for the sugar, then the base; units joined by * are phosphorothioate-linked, units joined directly phosphodiester-linked; [ ] holds rarer units or linkages, { } end groups; capitals alone tell only the bases. e = 2'-O-(2-methoxyethyl) (MOE); [5mC] = 5-methylcytosine; d = 2'-deoxy (DNA)

Tests used:
Human B7-1 mRNA = Human B7-1 mRNA expression in COS-7 cells, screened as in Example 4; type: cell-based; details: human B7-1 mRNA; Table 7
hB7-2 mRNA = assay: Ribonuclease protection assay of hB7-2 mRNA in transfected COS-7 cells; type: cell-based, human; details: human B7-2 mRNA; Table 12
Protocol: For ribonuclease protection assays, cells were harvested 18 hours after completion of oligonucleotide treatment using a Totally RNA™ kit (Ambion, Austin, Tex.). The probes for the assay were generated from plasmids pcB7-2 (linearized by digestion with Bgl II) and pTRI-b-actin (Ambion Inc., Austin, Tex.). In vitro transcription of the linearized plasmid from the SP6 promoter was performed in the presence of α-^32P-UTP (800 Ci/mmole) yielding an antisense RNA complementary to the 3′ end of B7-2 (position 1044-1391). The probe was gel-purified after treatment with DNase I to remove DNA template. Ribonuclease protection assays were carried out using an RPA II™ kit (Ambion) according to the manufacturer's directions. Total RNA (5 μg) was hybridized overnight, at 42° C., with 10^5 cpm of the B7-2 probe or a control beta-actin probe. The hybridization reaction was then treated, at 37° C. for 30 minutes, with 0.4 units of RNase A and 2 units of RNase T1. Protected RNA was precipitated, resuspended in 10 μL of gel loading buffer and electrophoresed on a 6% acrylamide gel with 50% w/v urea at 20 W. The gel was then exposed and the lanes quantitated using a PhosphorImager (Molecular Dynamics, Sunnyvale, Calif.) essentially according to the manufacturer's instructions.
The oligonucleotides were screened as described in Example 4 except that the concentration of oligonucleotide was varied as shown in Table 13. Mismatch control oligonucleotides were included.

| Substance | % mRNA EXPRESSION (hB7-2 mRNA) | further results |
| --- | --- | --- |
| 13805 (antisense C^{S}C^{S}T^{S}G^{S}C^{S}C^{S}T^{S}C^{S}C^{S}G^{S}T^{S}G^{S}T^{S}G^{S}T^{S}G^{S}G^{S}C^{S}C^{S}C; as printed in the source, key not given here) [compound 13805] |  | % mRNA EXPRESSION (Human B7-1 mRNA): 46%; % mRNA INHIBITION (Human B7-1 mRNA): 54% |
| 22285 (e[5mC]*eA*eG*eA*eA*dG*d[5mC]*dA*dA*dG*dG*dT*dG*dG*dT*eA*eA*eG*eA*eA; antisense) [compound 22285] | 74% | % mRNA INHIBITION (hB7-2 mRNA): 26% |
| 22286 (eG*e[5mC]*e[5mC]*eT*eG*dT*d[5mC]*d[5mC]*dA*d[5mC]*dT*dG*dT*dA*dG*e[5mC]*eT*e[5mC]*e[5mC]*eA; antisense) [compound 22286] | 39% |  |
| 22288 (eT*e[5mC]*eA*eG*eA*dG*dG*dA*dG*d[5mC]*dA*dG*d[5mC]*dA*d[5mC]*e[5mC]*eA*eG*eA*eG; antisense) [compound 22288] | 38% |  |
| 22289 (eT*eG*eG*e[5mC]*eA*dT*dG*dG*d[5mC]*dA*dG*dG*dT*d[5mC]*dT*eG*e[5mC]*eA*eG*eT; antisense) [compound 22289] | 41% |  |
| 22290 (eA*eG*e[5mC]*eT*e[5mC]*dA*d[5mC]*dT*d[5mC]*dA*dG*dG*d[5mC]*dT*dT*eT*eG*eG*eT*eT; antisense) [compound 22290] | 42% |  |
| 22291 (eT*eG*e[5mC]*e[5mC]*eT*dA*dA*dG*dT*dA*dT*dA*d[5mC]*d[5mC]*dT*e[5mC]*eA*eT*eT*e[5mC]; antisense) [compound 22291] | 41% |  |
| 22292 (e[5mC]*eT*eG*eT*e[5mC]*dA*dA*dA*dT*dT*dT*d[5mC]*dT*d[5mC]*dT*eT*eT*eG*e[5mC]*e[5mC]; antisense) [compound 22292] | 39% |  |
| 22293 (e[5mC]*eA*eT*eA*eT*dA*d[5mC]*dT*dT*dG*dG*dA*dA*dT*dG*eA*eA*e[5mC]*eA*e[5mC]; antisense) [compound 22293] | 43% |  |
| 22295 (eT*eG*eA*eT*e[5mC]*dT*dG*dA*dA*dG*dA*dT*dT*dG*dT*eG*eA*eA*eG*eT; antisense) [compound 22295] | 66% | % mRNA INHIBITION (hB7-2 mRNA): 34% |
| 22296 (eA*eA*eG*e[5mC]*e[5mC]*d[5mC]*dT*dT*dG*dT*d[5mC]*d[5mC]*dT*dT*dG*eA*eT*e[5mC]*eT*eG; antisense) [compound 22296] | 42% |  |
| 22297 (eT*eG*eT*eG*eA*dT*dG*dG*dA*dT*dG*dA*dT*dA*d[5mC]*eA*eT*eT*eG*eA; antisense) [compound 22297] | 54% | % mRNA INHIBITION (hB7-2 mRNA): 46% |
| 22298 (eT*e[5mC]*eA*eG*eG*dT*dT*dG*dA*d[5mC]*dT*dG*dA*dA*dG*eT*eT*eA*eG*e[5mC]; antisense) [compound 22298] | 53% | % mRNA INHIBITION (hB7-2 mRNA): 47% |
| 22299 (eG*eT*eG*eT*eA*dT*dA*dG*dA*dT*dG*dA*dG*d[5mC]*dA*eG*eG*eT*e[5mC]*eA; antisense) [compound 22299] | 46% |  |
| 22300 (eT*e[5mC]*eT*eG*eT*dG*dA*d[5mC]*dA*dT*dT*dA*dT*d[5mC]*dT*eT*eG*eA*eG*eA; antisense) [compound 22300] | 39% |  |
| 22301 (eA*eA*eG*eA*eT*dA*dA*dA*dA*dG*d[5mC]*d[5mC]*dG*d[5mC]*dG*eT*e[5mC]*eT*eT*eG; antisense) [compound 22301] | 51% |  |
| 22302 (eA*eG*eA*eA*eA*dA*d[5mC]*d[5mC]*dA*dT*d[5mC]*dA*d[5mC]*dA*d[5mC]*eA*eT*eA*eT*eA; antisense) [compound 22302] | 41% |  |
